What was measured:
Experiment in all cases: NCI 60 cell line panel screen (SRB)
Type in all cases: cell-based, human
NCI-H522 = test system: NCI-H522
SF-268 = test system: SF-268
NCI-H23 = test system: NCI-H23
SNB-19 = test system: SNB-19
RXF 393 = test system: RXF 393
SK-MEL-2 = test system: SK-MEL-2
M14 = test system: M14
MALME-3M = test system: MALME-3M
HCT-116 = test system: HCT-116
HOP-62 = test system: HOP-62
IGROVI = test system: IGROVI
BT-549 = test system: BT-549
CAKI-1 = test system: CAKI-1
SF-539 = test system: SF-539
EKVX = test system: EKVX
NCI/ADR-RES = test system: NCI/ADR-RES
SK-OV-3 = SK-OV-3 (Ovarian Cancer)

**Q.** How did the Log10TGI50 (NCI-H522; NCI-H522 (Non-Small Cell Lung Cancer), TGI: PG=0) turn out when `C[C@@H]1CC[C@H]2[C@@H](C)C(CC(O)(CC3OC4O[C@]5(C)CC[C@H]6[C@H](C)CC[C@@H]([C@H]3C)C46OO5)c3ccc(C(=O)O)cc3)OC3O[C@]4(C)CCC1C32OO4` (some centres unmarked) [Compound 11b, bis-trioxane tertiary alcohol benzoic acid] was run?
**A.** >−4.30 log10M

**Q.** And the Log10LC50 (NCI-H522; NCI-H-522 (Non-Small Cell Lung Cancer), LC50: PG=−50)?
**A.** >−4.30 log10M

**Q.** What about the Log10GI50 (NCI-H522; Non-Small Cell Lung Cancer, NCI-H522) of the same molecule?
**A.** −6.54

**Q.** And the Log10GI50 (SF-268; CNS Cancer, SF-268)?
**A.** −7.72

**Q.** What about the Log10LC50 (SF-268; SF-268 (CNS Cancer), LC50: PG=−50) of the same molecule?
**A.** >−4.30 log10M

**Q.** What about the Log10TGI50 (SF-268; SF-268 (CNS Cancer), TGI: PG=0) of the same molecule?
**A.** >−4.30 log10M

**Q.** And the Log10LC50 (NCI-H23; NCI-H23 (Non-Small Cell Lung Cancer), LC50: PG=−50)?
**A.** >−4.30 log10M

**Q.** What about the Log10TGI50 (NCI-H23; NCI-H23 (Non-Small Cell Lung Cancer), TGI: PG=0) of the same molecule?
**A.** −4.63 log10M

**Q.** What about the Log10GI50 (NCI-H23; Non-Small Cell Lung Cancer, NCI-H23) of the same molecule?
**A.** −8.19

**Q.** What about the Log10GI50 (SNB-19; CNS Cancer, SNB-19) of the same molecule?
**A.** −6.53

**Q.** What about the Log10LC50 (SNB-19; SNB-19 (CNS Cancer), LC50: PG=−50) of the same molecule?
**A.** >−4.30 log10M

**Q.** What about the Log10TGI50 (SNB-19; SNB-19 (CNS Cancer), TGI: PG=0) of the same molecule?
**A.** >−4.30 log10M

**Q.** What about the Log10LC50 (RXF 393; RXF 393 (Renal Cancer), LC50: PG=−50) of the same molecule?
**A.** >−4.30 log10M

**Q.** And the Log10TGI50 (RXF 393; RXF 393 (Renal Cancer), TGI: PG=0)?
**A.** −7.60 log10M

**Q.** And the Log10GI50 (RXF 393; Renal Cancer, RXF 393)?
**A.** <−8.30

**Q.** What about the Log10GI50 (SK-MEL-2; Melanoma, SK-MEL-2) of the same molecule?
**A.** −6.43

**Q.** And the Log10LC50 (SK-MEL-2; SK-MEL2 (Melanoma), LC50: PG=−50)?
**A.** >−4.30 log10M

**Q.** What about the Log10TGI50 (SK-MEL-2; SK-MEL-2 (Melanoma), TGI: PG=0) of the same molecule?
**A.** >−4.30 log10M

**Q.** And the Log10LC50 (M14; M14 (Melanoma), LC50: PG=−50)?
**A.** >−4.30 log10M

**Q.** What about the Log10TGI50 (M14; M-14 (Melanoma), TGI: PG=0) of the same molecule?
**A.** >−4.30 log10M

**Q.** And the Log10GI50 (M14; Melanoma, M14)?
**A.** −7.81

**Q.** What about the Log10LC50 (MALME-3M; MALME-3M (Melanoma), LC50: PG=−50) of the same molecule?
**A.** >−4.30 log10M

**Q.** And the Log10TGI50 (MALME-3M; MALME-3M (Melanoma), TGI: PG=0)?
**A.** −7.46 log10M

**Q.** What about the Log10GI50 (MALME-3M; Melanoma, MALME-3M) of the same molecule?
**A.** <−8.30

**Q.** And the Log10GI50 (HCT-116; Colon Cancer, HCT-116)?
**A.** <−8.30

**Q.** What about the Log10LC50 (HCT-116; HCT-116 (Colon Cancer), LC50: PG=−50) of the same molecule?
**A.** >−4.30 log10M

**Q.** And the Log10TGI50 (HCT-116; HCT-116 (Colon Cancer), TGI: PG=0)?
**A.** −4.40 log10M

**Q.** What about the Log10LC50 (HOP-62; HOP-62 (Non-Small Cell Lung Cancer), LC50: PG=−50) of the same molecule?
**A.** >−4.30 log10M

**Q.** What about the Log10TGI50 (HOP-62; HOP-62 (Non-Small Cell Lung Cancer), TGI: PG=0) of the same molecule?
**A.** >−4.30 log10M

**Q.** What about the Log10GI50 (HOP-62; Non-Small Cell Lung Cancer, HOP-62) of the same molecule?
**A.** −6.96

**Q.** And the Log10LC50 (IGROVI; IGROVI (Ovarian Cancer), LC50: PG=−50)?
**A.** >−4.30 log10M

**Q.** What about the Log10TGI50 (IGROVI; IGROVI (Ovarian Cancer), TGI: PG=0) of the same molecule?
**A.** −4.50 log10M

**Q.** And the Log10GI50 (IGROVI; Ovarian Cancer, IGROVI)?
**A.** −5.98

**Q.** What about the Log10LC50 (BT-549; BT-549 (Breast Cancer), LC50: PG=−50) of the same molecule?
**A.** >−4.30 log10M

**Q.** And the Log10TGI50 (BT-549; BT-549 (Breast Cancer), TGI: PG=0)?
**A.** −5.32 log10M

**Q.** What about the Log10GI50 (BT-549; Breast Cancer, BT-549) of the same molecule?
**A.** −5.82

**Q.** What about the Log10LC50 (CAKI-1; CAKI-1 (Renal Cancer), LC50: PG=−50) of the same molecule?
**A.** −4.44 log10M

**Q.** What about the Log10TGI50 (CAKI-1; CAKI-1 (Renal Cancer), TGI: PG=0) of the same molecule?
**A.** −6.91 log10M

**Q.** And the Log10GI50 (CAKI-1; Renal Cancer, CAKI-1)?
**A.** −7.74

**Q.** What about the Log10GI50 (SF-539; CNS Cancer, SF-539) of the same molecule?
**A.** −4.80

**Q.** And the Log10LC50 (SF-539; SF-539 (CNS Cancer), LC50: PG=−50)?
**A.** >−4.30 log10M

**Q.** What about the Log10TGI50 (SF-539; SF-539 (CNS Cancer), TGI: PG=0) of the same molecule?
**A.** >−4.30 log10M

**Q.** What about the Log10LC50 (EKVX; EKVX (Non-Small Cell Lung Cancer), LC50: PG=−50) of the same molecule?
**A.** >−4.30 log10M

**Q.** And the Log10TGI50 (EKVX; EKVX (Non-Small Cell Lung Cancer), TGI: PG=0)?
**A.** >−4.30 log10M

**Q.** And the Log10GI50 (EKVX; Non-Small Cell Lung Cancer, EKVX)?
**A.** −4.79

**Q.** And the Log10GI50 (NCI/ADR-RES; Breast Cancer, NCI/ADR-RES)?
**A.** −6.84

**Q.** And the Log10LC50 (NCI/ADR-RES; NCI/ADR-RES (Breast Cancer), LC50: PG=−50)?
**A.** >−4.30 log10M

**Q.** What about the Log10TGI50 (NCI/ADR-RES; NCI/ADR-RES (Breast Cancer), TGI: PG=0) of the same molecule?
**A.** >−4.30 log10M

**Q.** What about the Log10LC50 (SK-OV-3; LC50: PG=−50) of the same molecule?
**A.** >−4.30 log10M

**Q.** And the Log10TGI50 (SK-OV-3; TGI: PG=0)?
**A.** >−4.30 log10M

Source: patent publication US7417156B2, “Orally active, antimalarial, anticancer, artemisinin-derived trioxane dimers” (Johns Hopkins University, priority 2002, dated 2008)
